Melting point data for 87 compounds are collected here from a melting point compilation (Tetko et al.; mined from patent text by program, amines drawn as free bases though some values may be those of a salt).

A word on the melting point: it is the temperature, or range, at which the solid turns liquid.

For `COc1cccc(CN2C(=O)C3CCCC3N(C(=O)CN3C(=O)c4ccccc4C3=O)c3ccccc32)c1` (configuration not stated), the melting point fell in the range of 193 to 194 °C.
Consider `CS(=O)(=O)c1ccc(-c2cnn(-c3ccc(F)c(F)c3)c(=O)c2Cc2ccccc2)cc1`, for which the melting point was in the range of 166 to 168 °C.
Compound `CC(=O)NC1C(NC(=N)N)C=C(C(=O)O)OC1C(OC(=O)NCCCO)C(O)CO` (configuration not stated) came in with a melting point of 265 to 267 °C.
For `CC(C)=CCN1CC(=O)Nc2cc(S(=O)(=O)Oc3ccccc3)ccc21`, the melting point stood at 132 °C.
Consider `CCOC(=O)c1cc2cccc(O)c2[nH]1`, for which the melting point is 197 to 199 °C.
Regarding `COC(=O)CCCCCCC(=O)Nc1ccc(C(=O)NN=C2C(=O)Nc3ccc(I)cc32)cc1`, the melting point worked out at 268 °C.
For `CCN1C(=O)C2=C(c3cccc(Cl)c3)N(CC)C(=O)C2=C1c1cccc(Cl)c1`, the melting point is 203 to 205 °C.
Consider `CC(C)[C@H](NC(=O)c1ccc2ccccc2n1)C(=O)NC(Cc1ccccc1)C(O)CNCC(O)C(Cc1ccccc1)NC(=O)OC(C)(C)C` (some centres not stated), for which the melting point was 192 to 194 °C.
Consider `COc1ccc(Oc2nc(Nc3cccc(C(=O)O)c3)nc(Oc3ccc(C#N)cc3)n2)cc1`, for which the melting point fell in the range of 240 to 242 °C.
`CNC(=NC#N)NCCSCc1csc(NC(=S)NCC(F)(F)F)n1` returned a melting point of 157 to 158 °C.
On to `C=CCC(C)(C)C(=O)NC1CCCNC(=O)C1` (configuration not stated), for which the melting point was in the range of 71 to 72 °C.
Compound `O=c1ncc2c3c(ccc2[nH]1)OCO3` showed a melting point above 300 °C.
The compound `CCOC(=O)c1ccc(-c2ccc(-c3ccc(C(F)(F)F)cc3)n2C)cc1` had a melting point of 150 to 151 °C.
`COc1ccccc1NC(=O)Nc1nc(Oc2ccc3ccccc3c2)nc(N(CCC(=O)O)Cc2cccc3ccccc23)n1` had a melting point of 230 to 233 °C.
As for `CC(=O)OCCN1CC(c2ccccc2)NC1=O` (configuration not stated), the melting point lay within 88 to 90 °C.
With `CNC(=O)c1cc(Oc2ccc(NC(=O)Nc3ccc(Br)c(C(F)(F)F)c3)cc2)ccn1` the figure was 203 to 205 °C.
For the compound `O=C1Nc2cc(Cl)ccc2Nc2cscc21`, the melting point lay in the range of 212 to 213 °C.
In the case of `COc1cc(OC)c(OC)c(-c2ccc(N(C)CCN(C)c3ccc(-c4cc(OC)cc(OC)c4OC)nc3)cn2)c1`, the melting point is 171 to 172 °C.
Next, `CS(=O)(=O)c1ccc(-c2cccn3nc(N)nc23)cc1`: 236 to 239 °C; `CP(C)(=O)CCCOC(=O)c1cccnc1Nc1cccc(C(F)(F)F)c1`: 165 °C; `O=C(/C=C/C=C/c1ccc(Cl)cc1)NCCCC(=O)NO`: 164 to 166 °C.
Compound `O=c1ccn(C/C=C/COC(c2ccccc2)(c2ccccc2)c2ccccc2)c(=O)[nH]1` registered a melting point of 70 to 72 °C.
On to `COC(=O)[C@@H]1O[C@@H](c2ccccc2)N(NS(=O)(=O)c2c3ccccc3cc3ccccc23)[C@H]1c1ccccc1`, for which the melting point lay in the range of 71 to 73 °C.
Compound `CCCCCN1C(=O)C(CCC(=O)OC)(NC(=O)c2ccc(Cl)c(Cl)c2)c2ccccc21` (configuration not stated) displayed a melting point of 84 to 114 °C.
With `Clc1ccc2c(c1)c(-c1ccccc1)cc1nncn12`, the melting point was 265 to 266 °C.
Consider `Nc1ccc(F)c(Br)c1F`, for which the melting point fell in the range of 77 to 78 °C.
The compound `C(=C\c1nc(COc2ccc(CCCn3nccn3)cc2)co1)/c1ccccc1` showed a melting point of 103 to 104 °C.
`Fc1ccccc1C1=NCc2cncnc2-c2ccc(Cl)cc21` yielded a melting point of 122 to 124 °C.
As to `CC(CC(=O)N1CCCC1)Sc1cc(C(C)(C)C)c(O)c(C(C)(C)C)c1` (configuration not stated), the melting point was in the range of 95 to 99 °C.
With `CCCc1nc(C(C)O)c(C(=O)OCC)[nH]1` (configuration not stated) the figure was 151 to 153 °C; with `Nc1nc(Nc2ccccc2)sc1C(=O)c1cccs1`, 84 to 85 °C; with `c1ccc(CN2CCN(c3ccnc4[nH]ccc34)CC2)cc1`, 175 °C.
Next, `CCOC(=O)N1CCN(C(=O)OC2c3ccccc3C(=O)N2c2ccc(Cl)cn2)CC1` (configuration not stated): 160 °C; `CCc1ccc(N2CCN(c3c(C)c(C)c4c(c3C)CC(C)(C)O4)CC2)cc1`: 152 to 155 °C; `N/C(=C1/Sc2ccccc2C1=O)c1ccccc1`: 121 to 122 °C.
Next, `O=C(Cl)C(Oc1cccc(C(F)(F)F)c1)c1ccc(Cl)cc1` (configuration not stated): 96 to 98 °C; `CCOc1ccc(-c2cc(C(F)(F)F)n3ncc(-c4ccncc4)c3n2)cc1C(F)(F)F`: 233 °C.
With `CC(=CC(=O)Nc1ccc(C(=O)O)cc1)c1cc(C(C)C)c(C(C)C)o1`, the melting point was in the range of 232 to 235 °C.
Compound `O=C(NCC1CC1)c1[nH]c2ccc(Cl)cc2c1S(=O)(=O)c1ccccc1` came in with a melting point of 232 to 234 °C.
For the compound `CCOC(=O)C(=O)Nc1ccc(-n2ccnc2)cc1`, the melting point was in the range of 177 to 180 °C.
`NS(=O)(=O)c1ccc(-c2ccccc2-c2ccc(C(F)(F)F)cc2)cc1`: the melting point was found to be 188 °C.
Compound `O=C1c2ccccc2C(=O)N1c1c(F)cc(Cl)c2c1CCCO2` gave a melting point of 198 to 200 °C.
With `COc1ccccc1[C@@]1(O)[C@H](O)CC(c2ccccc2)(c2ccccc2)[C@@H]2CN(C(=O)Cc3ccc(N)cc3)C[C@@H]21` (racemic) the figure was 188 °C.
As to `Fc1ccccc1N1CCN(Cc2cn3cc(Cl)ccc3n2)CC1`, the melting point is 107 to 108 °C.
With `CCOC1CC2(C)C(CCC3C2C(=NO)CC2(C)C3CCC23OCCO3)CC1O` (configuration not stated) the figure was 136 to 140 °C; with `CCCCCOc1ccc(CC(C)C(=O)Oc2ccc(-c3ccc(CCC)cc3)cc2)cc1` (configuration not stated), 84 to 84.5 °C.
In turn, `C#CCOc1cc(Oc2ccccc2Cl)ncn1` yielded a melting point of 76.2 °C.
`Cc1cc(CBr)nc2ccccc12` showed a melting point of 92 °C.
`CC1CCN(c2cc(C(C)(C)C)on2)C1=O` (configuration not stated): the melting point is 89 to 90 °C.
Next, `Nc1ccc2ncnc(Nc3ccc(OCc4ccccc4)cc3)c2c1`: 173 to 175 °C; `O=C(c1ccc(O)cc1)c1c(-c2ccccc2)ccc2ccccc12`: 204 to 205 °C; `c1cn(CCCOc2ccc(-c3noc(C4CC4)n3)cc2)cn1`: 98 to 100 °C.
As for `CCCCc1ncc(CNC(C)(Cc2cccs2)C(=O)O)n1Cc1ccccc1Cl` (configuration not stated), the melting point was in the range of 109 to 112 °C.
Regarding `O=C(O)c1c[nH]c2c(-c3ccncc3)c(-c3ccc(F)cc3)nn2c1=O`, the melting point fell in the range of 215 to 218 °C.
The compound `Cc1cc2c3c(cc(Br)cc3c1Br)C(=O)N(O)C2=O` registered a melting point of 320 to 323 °C.
`CC(C)(C)OC(=O)CNc1nccc(-c2nc(=O)c3ccccc3s2)n1` gave a melting point of 247 to 248 °C.
Next, `CCOC(=O)COc1ccc(CSCC(=O)OCC)cc1NC(=O)c1ccc(OCCCCc2ccccc2)cc1`: 56 to 57 °C; `N#Cc1c(-c2ccc(OCc3ccccc3)cc2)n(Cc2ccc(OCCCl)cc2)c2cccc(OCc3ccccc3)c12`: 160 to 162 °C.
In the case of `CC1=Nc2ccccc2CC(c2ccsc2)N1C` (configuration not stated), the melting point is 113 to 117 °C.
Take `COC(=O)NCC1CN(c2ccc(C3C=CS(=O)(=O)CC3)cc2)C(=O)O1` (configuration not stated): the melting point lay within 196 to 197 °C.
Turning to `C=CCn1cc(-c2ccccc2)c(=O)c(-c2cccc(C(F)(F)F)c2)c1`, the melting point lay within 107 to 109 °C.
`O=C(O)CCNC(=O)CCNC(=O)N1CCC2(CCNCC2)CC1` had a melting point of 105 to 110 °C.
Next, `Nc1cc(C(=O)CCC(=O)O)ccc1Br`: 169 to 171 °C; `CC1CC(C)(C)OOC(C)(CCC(=O)NNC(=O)CCC(=O)O)O1` (configuration not stated): 122 to 126 °C; `CC(C)(C)c1cc(C=C2SCN(CCN)C2=O)cc(C(C)(C)C)c1O`: 176 to 178 °C.
`CN(c1ccc(O)cc1)c1nc2ccccc2[nH]1` returned a melting point above 260 °C.
Take `CSc1ccc(-c2ccccc2)c(NC(N)=S)c1`: the melting point lay within 166 to 167 °C.
Compound `CC(C)(C)CCN[C@@H](CC(=O)O)C(=O)O` yielded a melting point of 184 to 186 °C.
Compound `O=c1[nH]cc(Cl)c2ccc(CO)cc12` gave a melting point of 266 to 268 °C.
Regarding `CC(=O)OC1CSC(Oc2cncc(-c3ccc(C#N)nc3)c2)C(OC(C)=O)C1OC(C)=O` (configuration not stated), the melting point is 142 to 151 °C.
`Cc1nc(N)c2nc(C)n(CCOCCCc3ccccc3)c2c1C`: the melting point is 118 to 119 °C.
With `NCCOc1cccc2c1c1cccc(F)c1n2Cc1ccccc1` the figure was 122 to 123 °C; with `NS(=O)(=O)c1cc(C(=O)CCCCCl)cc2c1CCC2`, 117 to 119 °C; with `Nc1ccc(S(=O)(=O)c2cc(-c3ccccc3F)nc(N3CCCC3)c2)cc1`, 246 to 248 °C.
Regarding `c1ccc2c(OC[C@H]3CCCN3c3ncnc4[nH]cnc34)ccc(CN3CCOCC3)c2c1`, the melting point was in the range of 134 to 138 °C.
Regarding `O=C(NCCCC1CCC2=C1CC=CC2)C(F)(F)F` (configuration not stated), the melting point lay within 61 to 62 °C.
Next, `CC(=O)Nc1nc2cnccc2s1`: above 212 °C.
Compound `COc1cc2ncnc(N3CCN(C(=S)NCc4ccc(OC(F)(F)F)cc4)CC3)c2cc1OC` gave a melting point of 131 to 132 °C.
Next, `CN(Cc1ccc(NC(=O)C2=Cc3cc(-c4ccc5c(c4)CCC(C)(C)O5)ccc3S(=O)(=O)CC2)cc1)C1CCOCC1`: 222 to 226 °C; `O=C1c2ccc(Br)cc2C(=O)N1c1ccc(Cl)cc1C(F)(F)F`: 174 to 175 °C.
For the compound `N#CNc1nccc(Oc2ccc(NC(=O)c3cc(F)cc(N4CCCCC4)c3)c3ccccc23)n1`, the melting point lay within 160 to 162 °C.
Compound `COc1ccc(C(C(c2ccccc2)c2ccc(F)cc2)C(F)(F)F)cc1` (configuration not stated) yielded a melting point of 113 to 120 °C.
In the case of `N#CCCSc1ccc(Cl)cc1`, the melting point was in the range of 53 to 54 °C.
`NC(=O)c1cc(OCCNCC(O)COc2ccc(-c3nc(C(F)(F)F)c[nH]3)cc2)ccc1O` (configuration not stated) gave a melting point of 155 to 158 °C.
Next, `COc1cccc(N(C)C(=O)c2ncc(-c3cccc(C)c3)s2)c1`: 85 °C; `CC(C)(C)OC(=O)NC1C(=O)N2C(C(=O)OCc3ccc([N+](=O)[O-])cc3)=C(S)SCC12` (mixture of isomers): 170 °C; `COc1cc(C(=O)Nc2c(Cl)cc3cn[nH]c3c2C(=O)NC2(C)CSC2)n(-c2ncccc2Cl)n1`: 162 to 165 °C.
